Test results published in US20190315806A1, “POLYMYXIN DERIVATIVE, PREPARATION METHOD AND APPLICATION THEREOF” (priority 2016, published 2019).
≈ marks a conversion by molar mass, not a printed value. Where a SMILES comes first, the peptide text is derived from it. Bridges are numbered along the chain shown (N, C = ends). [ ]: non-standard residue; d: D form. The star is where a group is joined. Dab = NCC[C@H](N)C(=O)O; X3 = CCCCC(=O)CC(=O)*

Experiments:
Type in all cases: cell-based
[1] = tested on: Acinetobacter baumannii ATCC 19606; conditions: ATCC 19606
Procedure, shortened: (§1)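 Overnight broth cultures were spotted at 10^4 CFU per dot onto agar plates holding two-fold compound dilutions (final 0.03–128 μg/mL), following CLSI. Plates were read after 18–24 h at 35 °C, with the lowest colony-free concentration taken as MIC.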

[2] = tested on: Escherichia coli ATCC 25922; conditions: ATCC 25922
Procedure, shortened: as §1

[3] = tested on: Pseudomonas aeruginosa ATCC 27853; conditions: ATCC 27853
Procedure, shortened: as §1

[4] = tested on: Staphylococcus epidermidis ATCC 12228; conditions: ATCC 12228
Procedure, shortened: as §1

[5] = tested on: Klebsiella pneumoniae ATCC BAA-2146 (NDM-1); test: Antibacterial activity, MIC by dish double dilution method; conditions: ATCC BAA-2146
Procedure, shortened: as §1

[6] = Nephrotoxicity test, renal cytotoxicity by MTT method; conditions: African green monkey
Procedure, shortened: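 Vero cells, adhered 24 h, exposed to a compound concentration gradient for 72 h at 37 °C, 5% CO2. Viability by MTT (0.5 mg/ml, 3 h), DMSO-solubilised, A570 nm, normalised to background and untreated control. IC50 from inhibition curve, mean of 3 wells per point.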

For `CCCCC(=O)CC(=O)N[C@@H](CCN)C(=O)N[C@H](C(=O)N[C@@H](CCN)C(=O)N[C@H]1CCNC(=O)[C@H]([C@@H](C)O)NC(=O)[C@H](CCN)NC(=O)[C@H](CCN)NC(=O)[C@H](CC(C)C)NC(=O)[C@@H](Cc2ccccc2)NC(=O)[C@H](CCN)NC1=O)[C@@H](C)O` [Compound 4, 3-oxoheptanoyl-Dab-Thr-Dab-ring(4-10)[Dab-Dab-D-Phe-Lue-Dab-Dab-Thr]] (X3-[Dab]T[Dab][Dab][Dab][dF]L[Dab][Dab]T; lactam 4-C), the “MIC A. baumannii ATCC 19606” value [1] was 2 µg/mL (≈ 1.68 µM), the “MIC E. coli ATCC 25922” value [2] was 0.5 µg/mL (≈ 0.42 µM) and the “MIC P. aeruginosa ATCC 27853” value [3] was 2 µg/mL (≈ 1.68 µM). For the same compound, the “MIC S. epidermidis ATCC 12228” value [4] was 128 µg/mL (≈ 108 µM), the “MIC K. pneumoniae ATCC BAA-2146 (NDM-1)” value [5] was 2 µg/mL (≈ 1.68 µM) and the IC50 at 72 h [6] was 110 ± 9.08 µg/mL (≈ 92.2 µM).
